As a reminder, the half-life is the time in which the quantity being followed falls by half. Read a low half-life as fast loss. For orientation: bioavailability means the share of a dose that reaches the circulation, judged against a reference dose that is usually intravenous. Low readings indicate poor availability, high ones good availability. As usually defined, the IC50 is the concentration that gives 50% inhibition. What is called Ki is the equilibrium dissociation constant of an inhibitor or competing ligand from its target. Broadly, the clearance is the volume of plasma or blood freed of the substance per unit of time. Read a low clearance as a low capacity for elimination.

Chain of Serine protease 1 (P07477 whole entry): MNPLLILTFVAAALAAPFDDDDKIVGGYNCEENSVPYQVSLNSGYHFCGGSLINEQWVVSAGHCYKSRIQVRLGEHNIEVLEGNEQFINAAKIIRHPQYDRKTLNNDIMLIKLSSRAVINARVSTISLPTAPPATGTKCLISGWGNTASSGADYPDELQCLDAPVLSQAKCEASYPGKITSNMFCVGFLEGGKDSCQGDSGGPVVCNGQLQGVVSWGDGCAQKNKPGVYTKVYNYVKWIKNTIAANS

System in the first data set: not listed separately
As to the kind of experiment: Half life in dogs in hours. The following applies: dog, in vivo. The data set is classed as ADME, organism-based, Canis lupus familiaris.
`C/C(=C(\F)C(=O)Nc1ccc(-c2ccccc2S(N)(=O)=O)cc1)c1ccc2ccnc(N)c2c1` gave a half-life of 7.1 h.

Consider `C/C(=C(\F)C(=O)Nc1ccc(-c2ccccc2S(N)(=O)=O)cc1Br)c1ccc2ccnc(N)c2c1`, for which the half-life is 6 h.

System in the next data set: not listed separately
As to the kind of experiment: Oral bioavailability in ratrs. The data set is classed as ADME, organism-based. The following applies: rat, in vivo.
`C/C(=C(\F)C(=O)Nc1ccc(-c2ccccc2S(N)(=O)=O)cc1Cl)c1ccc2ccnc(N)c2c1` showed a bioavailability of 35.1%.

The target of another data set is T1, Coagulation factor X (Homo sapiens, UniProt P00742). As to the kind of experiment: Concentration required for inhibition of Coagulation factor X.
T1 sequence (P00742 41-179 limits assumed): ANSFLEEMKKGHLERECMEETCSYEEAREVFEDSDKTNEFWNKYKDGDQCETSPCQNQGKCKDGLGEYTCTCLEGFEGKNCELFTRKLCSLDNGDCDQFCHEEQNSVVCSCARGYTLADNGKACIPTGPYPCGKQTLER
T1 sequence (P00742 235-488 limits assumed): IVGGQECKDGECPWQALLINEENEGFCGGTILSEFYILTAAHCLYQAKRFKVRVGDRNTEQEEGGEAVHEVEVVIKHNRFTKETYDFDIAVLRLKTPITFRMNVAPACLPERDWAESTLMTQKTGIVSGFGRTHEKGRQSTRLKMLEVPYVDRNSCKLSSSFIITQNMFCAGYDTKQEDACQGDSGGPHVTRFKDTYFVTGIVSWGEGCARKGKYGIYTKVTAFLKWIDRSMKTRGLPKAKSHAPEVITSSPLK
Settings: not given
With `C/C(=C(\F)C(=O)Nc1ccc(-c2ccccc2S(N)(=O)=O)cc1Br)c1cc(Br)ccc1N`, the IC50 is > 11000 nM.

For `C/C(=C(\F)C(=O)Nc1ccc(-c2ccccc2S(N)(=O)=O)cn1)c1ccc2ccnc(N)c2c1`, the IC50 is 14 nM. This lies in the double-digit nanomolar range.

For `C/C(=C(\F)C(=O)Nc1ccc(-c2ccccc2S(N)(=O)=O)cc1)c1cccc(N)c1`, the 50% inhibitory concentration (IC50) was > 11000 nM.

Turning to `C/C(=C(/F)C(=O)Nc1ccc(-c2ccccc2S(N)(=O)=O)cc1)c1ccc2nc(N)nc(N)c2c1`, the IC50 was > 11000 nM.

`C/C(=C(\F)C(=O)Nc1ccc(-c2ccccc2S(N)(=O)=O)cc1)c1ccc2ccnc(N)c2c1` gave an IC50 of 14 nM.

The molecule `C/C(=C(\F)C(=O)Nc1ccc(-c2ccccc2S(N)(=O)=O)cc1F)c1cccc(C(=N)S)c1` displayed an IC50 of 140 nM. This IC50 is about 10-fold higher than that of the molecule before.

Turning to `C/C(=C(/F)C(=O)Nc1ccc(-c2ccccc2S(N)(=O)=O)cc1)c1ccc2ncnc(N)c2c1`, the IC50 is 270 nM.

`C/C(=C(\F)C(=O)Nc1ccc(-c2ccccc2S(N)(=O)=O)cc1)c1cc(Cl)ccc1C#N` displayed an IC50 of 9500 nM.

In turn, `C/C(=C(\F)C(=O)Nc1ccc(-c2ccncc2S(C)(=O)=O)cc1)c1ccc2ccnc(N)c2c1` had an IC50 of 7 nM. Against the preceding molecule, the IC50 is about 1400-fold lower.

Molecule `C/C(=C(\F)C(=O)Nc1ccc(-c2ccccc2C#N)cc1)c1ccc2ccnc(N)c2c1` yielded an IC50 of 190 nM. Against the preceding molecule, the IC50 is about 27-fold higher.

On to `C/C(=C(\F)C(=O)Nc1ccc(-c2ccccc2S(N)(=O)=O)cc1F)c1ccc2ccnc(N)c2c1`, for which half-maximal inhibition (IC50) required 5 nM.

For the molecule `C/C(=C(/F)C(=O)Nc1ccc(-c2ccccc2S(N)(=O)=O)cc1)c1ccc2ccnc(N)c2c1`, the midpoint of inhibition, the IC50, lay at 880 nM. This IC50 lies about 180-fold higher than the previous one.

As to `COc1ccc(/C(C)=C(/F)C(=O)Nc2ccc(-c3ccccc3S(N)(=O)=O)cc2)c(C#N)c1`, the IC50 was 5700 nM.

Regarding `Nc1nccc2ccc(/C=C\C(=O)Nc3ccc(-c4ccccc4S(N)(=O)=O)cc3)cc12`, the IC50 came out at 78 nM.

`C/C(Cc1ccc(Br)cc1)=C(\F)C(=O)Nc1ccc(-c2ccccc2S(N)(=O)=O)cc1` displayed an IC50 of 1800 nM.

Turning to `C/C(=C(\F)C(=O)Nc1ccc(-c2ccccc2S(N)(=O)=O)cc1Cl)c1ccc2ccnc(N)c2c1`, the IC50 came to 11 nM. This IC50 is about 160-fold lower than that of the molecule before.

In turn, `C/C(=C(\F)C(=O)Nc1ccc(-c2ccccc2S(N)(=O)=O)cc1Br)c1cc(Br)ccc1[N+](=O)[O-]` showed an IC50 of 2900 nM.

On to `C/C(=C(\F)C(=O)Nc1ccc(-c2ccccc2S(N)(=O)=O)cc1Br)c1ccc2ccnc(N)c2c1`, for which 7 nM corresponded to half-maximal inhibition (IC50).

`C/C(=C(\F)C(=O)Nc1ccc(-c2ccccc2S(N)(=O)=O)cc1)c1cccc(C(N)=O)c1` had a 50% inhibitory concentration (IC50) of 920 nM.

In turn, `C/C(=C(\F)C(=O)Nc1ccc(-c2ccncc2[S+](C)[O-])cc1F)c1ccc2ccnc(N)c2c1` (configuration not stated) gave a half-maximal inhibitory concentration (IC50) of 1500 nM. This IC50 lies about 1.6-fold higher than the previous one.

Take `C/C(=C(\F)C(=O)Nc1ccc(-c2ccccc2S(N)(=O)=O)cc1)c1cccc(NN)c1`: the IC50 is > 11000 nM.

Turning to `C/C(=C(\F)C(=O)Nc1ccc(-c2ccccc2S(N)(=O)=O)cc1)c1cc(N)ccc1[N+](=O)[O-]`, the IC50 turned out to be 250 nM.

The molecule `C/C(=C(\F)C(=O)Nc1ccc(-c2ccnc(C(N)=O)c2)cc1)c1ccc2ccnc(N)c2c1` had an IC50 of 180 nM.

A further data set concerns the target Serine protease 1 (Homo sapiens, UniProt P07477). The experiment in a line: Concentration required for inhibition of trypsin.
Settings: not given
On to `C/C(=C(\F)C(=O)Nc1ccc(-c2ccccc2S(N)(=O)=O)cc1F)c1ccc2ccnc(N)c2c1`, for which 9700 nM corresponded to half-maximal inhibition (IC50).

For `C/C(=C(\F)C(=O)Nc1ccc(-c2ccccc2S(N)(=O)=O)cc1Cl)c1ccc2ccnc(N)c2c1`, the IC50 is > 11000 nM.

Turning to `C/C(=C(\F)C(=O)Nc1ccc(-c2ccccc2S(N)(=O)=O)cc1Br)c1ccc2ccnc(N)c2c1`, the IC50 came out at 2400 nM.

In the next data set the target is Prothrombin (Homo sapiens, UniProt P00734). As to the kind of experiment: Concentration required for inhibition of Coagulation factor II.
Settings: not given
In the case of `C/C(=C(\F)C(=O)Nc1ccc(-c2ccccc2S(N)(=O)=O)cc1F)c1ccc2ccnc(N)c2c1`, the IC50 worked out at 6300 nM.

Molecule `C/C(=C(\F)C(=O)Nc1ccc(-c2ccccc2S(N)(=O)=O)cc1Cl)c1ccc2ccnc(N)c2c1` yielded an IC50 of 5400 nM.

Turning to `C/C(=C(\F)C(=O)Nc1ccc(-c2ccccc2S(N)(=O)=O)cc1Br)c1ccc2ccnc(N)c2c1`, the IC50 worked out at 4800 nM.

The next data set is filed under the species Oryctolagus cuniculus. The experiment in a line: Antithrombotic activity was evaluated by using rabbit PT assay. The data set is classed as functional.
Settings: not given
With `C/C(=C(\F)C(=O)Nc1ccc(-c2ccccc2S(N)(=O)=O)cc1F)c1ccc2ccnc(N)c2c1`, the Activity was 6.3 µM.

For `C/C(=C(\F)C(=O)Nc1ccc(-c2ccccc2S(N)(=O)=O)cc1Cl)c1ccc2ccnc(N)c2c1`, the Activity was determined as 9.4 µM.

`C/C(=C(\F)C(=O)Nc1ccc(-c2ccccc2S(N)(=O)=O)cc1Br)c1ccc2ccnc(N)c2c1` returned an Activity of 10.3 µM.

System in a further data set: not listed separately
The experiment in a line: Oral bioavailability in rat. The following applies: in vivo. The data set is classed as ADME, organism-based.
Take `C/C(=C(\F)C(=O)Nc1ccc(-c2ccccc2S(N)(=O)=O)cn1)c1ccc2ccnc(N)c2c1`: the bioavailability was 13%.

Molecule `C/C(=C(\F)C(=O)Nc1ccc(-c2ccccc2S(N)(=O)=O)cc1)c1ccc2ccnc(N)c2c1` registered a bioavailability of 6.8%.

Molecule `C/C(=C(\F)C(=O)Nc1ccc(-c2ccccc2S(N)(=O)=O)cc1F)c1ccc2ccnc(N)c2c1` gave a bioavailability of 13.5%.

Take `Nc1nccc2ccc(/C=C\C(=O)Nc3ccc(-c4ccccc4S(N)(=O)=O)cc3)cc12`: the bioavailability is 1.5%.

For `C/C(=C(\F)C(=O)Nc1ccc(-c2ccccc2S(N)(=O)=O)cc1Br)c1ccc2ccnc(N)c2c1`, the bioavailability came out at 30.1%.

System in another data set: not listed separately
As to the kind of experiment: Half life in rats in hours. In kind it is ADME, organism-based. The following applies: rat, in vivo.
Turning to `C/C(=C(\F)C(=O)Nc1ccc(-c2ccccc2S(N)(=O)=O)cn1)c1ccc2ccnc(N)c2c1`, the half-life was 1.64 h.

As for `C/C(=C(\F)C(=O)Nc1ccc(-c2ccccc2S(N)(=O)=O)cc1)c1ccc2ccnc(N)c2c1`, the half-life is 2.38 h.

On to `C/C(=C(\F)C(=O)Nc1ccc(-c2ccccc2S(N)(=O)=O)cc1F)c1ccc2ccnc(N)c2c1`, for which the half-life was 1.7 h.

Consider `Nc1nccc2ccc(/C=C\C(=O)Nc3ccc(-c4ccccc4S(N)(=O)=O)cc3)cc12`, for which the half-life is 1.51 h.

Turning to `C/C(=C(\F)C(=O)Nc1ccc(-c2ccccc2S(N)(=O)=O)cc1Cl)c1ccc2ccnc(N)c2c1`, the half-life was 1.43 h.

Consider `C/C(=C(\F)C(=O)Nc1ccc(-c2ccccc2S(N)(=O)=O)cc1Br)c1ccc2ccnc(N)c2c1`, for which the half-life was 1.6 h.

The next data set addresses T1, Coagulation factor X. The experiment in a line: Binding affinity towards Coagulation factor X.
Settings: not given
For `C/C(=C(\F)C(=O)Nc1ccc(-c2ccccc2S(N)(=O)=O)cc1F)c1ccc2ccnc(N)c2c1`, the affinity corresponds to a Ki of 1.6 nM.

On to `C/C(=C(\F)C(=O)Nc1ccc(-c2ccccc2S(N)(=O)=O)cc1Cl)c1ccc2ccnc(N)c2c1`, for which the Ki was 1.1 nM. The Ki values of the last two molecules are within 1.5-fold of each other.

The molecule `C/C(=C(\F)C(=O)Nc1ccc(-c2ccccc2S(N)(=O)=O)cc1Br)c1ccc2ccnc(N)c2c1` returned an inhibition constant (Ki) of 1.3 nM.

System in the next data set: not listed separately
The experiment in a line: Volume distribution in dogs. In kind it is ADME, organism-based, Canis lupus familiaris. The following applies: dog, in vivo; read-out: Vz.
For the molecule `C/C(=C(\F)C(=O)Nc1ccc(-c2ccccc2S(N)(=O)=O)cc1)c1ccc2ccnc(N)c2c1`, the Vd is 6.8 L/kg.

Take `C/C(=C(\F)C(=O)Nc1ccc(-c2ccccc2S(N)(=O)=O)cc1Br)c1ccc2ccnc(N)c2c1`: the Vd stood at 5.5 L/kg.

System in a further data set: not listed separately
As to the kind of experiment: Oral bioavailability in dog. In kind it is ADME, organism-based, Canis lupus familiaris. The following applies: in vivo.
For the molecule `C/C(=C(\F)C(=O)Nc1ccc(-c2ccccc2S(N)(=O)=O)cc1)c1ccc2ccnc(N)c2c1`, the bioavailability turned out to be 36.7%.

Molecule `C/C(=C(\F)C(=O)Nc1ccc(-c2ccccc2S(N)(=O)=O)cc1Br)c1ccc2ccnc(N)c2c1` returned a bioavailability of 33.1%.

System in another data set: not listed separately
The experiment in a line: Plasma clearance in dogs. The data set is classed as ADME, organism-based, Canis lupus familiaris. Conditions: dog.
`C/C(=C(\F)C(=O)Nc1ccc(-c2ccccc2S(N)(=O)=O)cc1)c1ccc2ccnc(N)c2c1` showed a clearance of 11.4 mL/min/kg.

For `C/C(=C(\F)C(=O)Nc1ccc(-c2ccccc2S(N)(=O)=O)cc1Br)c1ccc2ccnc(N)c2c1`, the clearance turned out to be 10.8 mL/min/kg.

System in another data set: not listed separately
The experiment in a line: Volume distribution in rats. The data set is classed as ADME, organism-based. The following applies: rat, in vivo; read-out: Vz.
In the case of `C/C(=C(\F)C(=O)Nc1ccc(-c2ccccc2S(N)(=O)=O)cn1)c1ccc2ccnc(N)c2c1`, the Vd amounted to 2.7 L/kg.

With `C/C(=C(\F)C(=O)Nc1ccc(-c2ccccc2S(N)(=O)=O)cc1)c1ccc2ccnc(N)c2c1`, the Vd was 10 L/kg.

Consider `C/C(=C(\F)C(=O)Nc1ccc(-c2ccccc2S(N)(=O)=O)cc1F)c1ccc2ccnc(N)c2c1`, for which the Vd worked out at 3.7 L/kg.

Take `Nc1nccc2ccc(/C=C\C(=O)Nc3ccc(-c4ccccc4S(N)(=O)=O)cc3)cc12`: the Vd was found to be 7.4 L/kg.

As to `C/C(=C(\F)C(=O)Nc1ccc(-c2ccccc2S(N)(=O)=O)cc1Cl)c1ccc2ccnc(N)c2c1`, the Vd is 0.8 L/kg.

Turning to `C/C(=C(\F)C(=O)Nc1ccc(-c2ccccc2S(N)(=O)=O)cc1Br)c1ccc2ccnc(N)c2c1`, the Vd came to 0.61 L/kg.

System in the next data set: not listed separately
The experiment in a line: Plasma clearance in rats. In kind it is ADME, organism-based. The following applies: rat.
In the case of `C/C(=C(\F)C(=O)Nc1ccc(-c2ccccc2S(N)(=O)=O)cn1)c1ccc2ccnc(N)c2c1`, the clearance was 19.1 mL/min/kg.

`C/C(=C(\F)C(=O)Nc1ccc(-c2ccccc2S(N)(=O)=O)cc1)c1ccc2ccnc(N)c2c1` returned a clearance of 48.7 mL/min/kg.

Regarding `C/C(=C(\F)C(=O)Nc1ccc(-c2ccccc2S(N)(=O)=O)cc1F)c1ccc2ccnc(N)c2c1`, the clearance came to 25.3 mL/min/kg.

`Nc1nccc2ccc(/C=C\C(=O)Nc3ccc(-c4ccccc4S(N)(=O)=O)cc3)cc12` had a clearance of 56.4 mL/min/kg.

Molecule `C/C(=C(\F)C(=O)Nc1ccc(-c2ccccc2S(N)(=O)=O)cc1Cl)c1ccc2ccnc(N)c2c1` showed a clearance of 6.7 mL/min/kg.

`C/C(=C(\F)C(=O)Nc1ccc(-c2ccccc2S(N)(=O)=O)cc1Br)c1ccc2ccnc(N)c2c1` gave a clearance of 4.4 mL/min/kg. Compared with the last molecule, the clearance is about 1.5-fold lower.
